Measured values reported in US20120095022A1, “DERIVATIVES OF 10-AMINO-1,2,3,4-TETRAHYDROPYRIDO[2,1-A]ISOINDOL-6(10BH)-ONES, METHOD FOR PREPARATION THEREOF AND THERAPEUTIC USES THEREOF” (UNIVERSITE D'ORLEANS, priority 2009, published 2012).

What was measured:
MDA-MB 231 (breast) = assay: Cytotoxicity on human cells, automated nuclei counting: MDA-MB 231; assay type: cell-based; conditions: MDA-MB 231 cells, exposed 24 h to 48 h, 0.1 to 25 μM
In short: (§1)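 Cells are seeded at 4.10^3 per well and left 24 hours to bind and grow before treatment with rising concentrations of each molecule. Medium is DMEM or RPMI supplemented with 10% fetal calf serum and antibiotics, at 37° C with 5% CO2; DMSO controls stay at or below 1%.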

fibroblast = assay: Cytotoxicity on human cells, automated nuclei counting: fibroblast; assay type: cell-based; conditions: exposed 24 h to 48 h, 0.1 to 25 μM
In short: as §1

CDK5/D25 = biological target: T1, CDK5/D25 (Homo sapiens, UniProt Q00535); assay: CDK5 kinase inhibition (33P-ATP, histone H1); assay type: biochemical; conditions: buffer C, 30° C., 15 μM ATP, read-out: IC50 μM Kinases CDK5
T1 construct: made in house
T1 sequence (Q00535 whole entry): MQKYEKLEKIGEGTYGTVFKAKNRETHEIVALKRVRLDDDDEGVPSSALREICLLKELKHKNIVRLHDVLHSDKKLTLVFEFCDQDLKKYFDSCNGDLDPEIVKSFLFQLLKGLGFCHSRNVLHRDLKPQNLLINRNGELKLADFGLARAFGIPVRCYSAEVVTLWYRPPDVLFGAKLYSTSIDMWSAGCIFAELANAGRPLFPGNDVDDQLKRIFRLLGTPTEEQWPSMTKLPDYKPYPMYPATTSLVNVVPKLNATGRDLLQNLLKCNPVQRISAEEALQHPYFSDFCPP
T1 sequence (Q15078 99-307 partner limits assumed): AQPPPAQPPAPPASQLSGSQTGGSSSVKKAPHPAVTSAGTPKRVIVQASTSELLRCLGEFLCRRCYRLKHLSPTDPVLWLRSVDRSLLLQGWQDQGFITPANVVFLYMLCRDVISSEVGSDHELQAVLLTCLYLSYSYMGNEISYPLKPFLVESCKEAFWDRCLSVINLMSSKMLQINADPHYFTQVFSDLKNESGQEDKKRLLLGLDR
In short: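 Kinase reactions ran in buffer C (25 mM Mops pH 7.2, 15 mM MgCl2, 1 mM DTT, phosphatase inhibitors) with [33P]-ATP for 30 min at 30° C. Phosphorylated substrate was captured on P81 phosphocellulose filters, washed in phosphoric acid and counted by scintillation.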

GSK-3αβ = assay: GSK-3 kinase inhibition (GS-1 substrate); conditions: read-out: IC50 μM Kinases GSK3, buffer A, 30° C., 15 μM ATP
DYRK1A = DYRK1A (Homo sapiens, UniProt Q13627); assay: DYRK1A kinase inhibition (Woodtide substrate)
NCI (lung) = assay: Cytotoxicity on human cells, automated nuclei counting: NCI; assay type: cell-based; conditions: exposed 24 h to 48 h, 0.1 to 25 μM
In short: as §1

HCT 116 (colon) = assay: Cytotoxicity on human cells, automated nuclei counting: HCT 116; assay type: cell-based; conditions: HCT 116 cells, exposed 24 h to 48 h, 0.1 to 25 μM
In short: as §1

Caco (colon) = assay: Cytotoxicity on human cells, automated nuclei counting: Caco; assay type: cell-based; conditions: exposed 24 h to 48 h, 0.1 to 25 μM
In short: as §1

Huh7 (liver) = assay: Cytotoxicity on human cells, automated nuclei counting: Huh7; assay type: cell-based; conditions: Huh-7, exposed 24 h to 48 h, 0.1 to 25 μM
In short: as §1

PC3 (prostate) = assay: Cytotoxicity on human cells, automated nuclei counting: PC3; assay type: cell-based; conditions: PC-3, exposed 24 h to 48 h, 0.1 to 25 μM
In short: as §1

Row | SMILES | IC50 (CDK5/D25) | IC50 (GSK-3αβ) | IC50 (DYRK1A) | melting point | IC50 (MDA-MB 231 (breast)) | IC50 (fibroblast) | IC50 (NCI (lung)) | IC50 (HCT 116 (colon)) | IC50 (Caco (colon)) | IC50 (Huh7 (liver)) | IC50 (PC3 (prostate))
1 | O=C(Nc1cccc(Br)n1)Nc1cccc2c1C1CC3(CCN1C2=O)OCCO3 (stereo not drawn) [Compound 47] | > 10 µM | 0.89 µM | > 10 µM | 184 to 186 °C | 20 µM | 20 µM | 20 µM | 6 µM | 12 µM | 8 µM | 6 µM
2 | COc1cc(NC(=O)Nc2cccc3c2C2CC(OC)CCN2C3=O)nc2ccccc12 (stereo not drawn) [Compound 55, 1-(2-Methoxy-6-oxo-1,2,3,4,6,10b-hexahydropyrido[2,1-a]isoindol-10-yl)-3-(4-methoxyquinolin-2-yl)urea] | 8.5 µM | 0.18 µM | > 10 µM | > 260 °C | 15 µM | 10 µM | 5 µM | 2.5 µM | 10 µM | 3 µM | 3 µM
3 | O=C(Nc1ncccn1)Nc1cccc2c1C1CCCCN1C2=O (stereo not drawn) [Compound 42, 1-(6-oxo-1,2,3,4,6,10b-hexahydro-pyrido[2,1-a]isoindol-10-yl)-3-pyrimidin-2-yl-urea] | > 10 µM | 0.75 µM | > 10 µM | 232 °C | 4 µM | 2.5 µM | 8 µM | 4 µM | 2 µM | 0.6 µM | 2 µM
4 | Cc1cccc(NC(=O)Nc2cccc3c2C2CC4(CCN2C3=O)OCCO4)n1 (stereo not drawn) [Compound 46] | > 10 µM | 0.92 µM | > 10 µM | 240 to 242 °C | 15 µM | 20 µM | 12 µM | 10 µM | 10 µM | 12 µM | 12 µM
5 | COc1cc(NC(=O)Nc2cccc3c2C2CC4(CCN2C3=O)OCCO4)nc2ccccc12 (stereo not drawn) [Compound 48] | > 10 µM | 1 µM | > 10 µM | 258 to 260 °C | 4 µM | 20 µM | 20 µM | 8 µM | > 25 µM | 8 µM | 8 µM
6 | Cc1cccc(NC(=O)Nc2cccc3c2C2CC4(CCN2C3=O)SCCS4)n1 (stereo not drawn) [Compound 50] | > 10 µM | 2 µM | > 10 µM | 154 to 156 °C | 15 µM | 2 µM | 15 µM | 12 µM | 10 µM | 5 µM | 6 µM
7 | O=C(Nc1nc2ccccc2s1)Nc1cccc2c1C1CCCCN1C2=O (stereo not drawn) [Compound 34, 1-(Benzo[d]thiazol-2-yl)-3-(6-oxo-1,2,3,4,6,10b-hexahydropyrido[2,1-a]-isoindol-10-yl)urea] | 16 µM | 3.5 µM | 88 µM | 260 °C | 1.5 µM | 2 µM | 4 µM | 0.5 µM | 0.7 µM | 0.6 µM | 1 µM
8 | COc1cc(NC(=O)Nc2cccc3c2C2CC(O)CCN2C3=O)nc2ccccc12 (stereo not drawn) [Compound 109, 1-(2-Hydroxy-6-oxo-1,2,3,4,6,10b-hexahydropyrido[2,1-a]isoindol-10-yl)-3-(4-methoxyquinolin-2-yl)urea] | 4.9 µM | 0.035 µM | > 10 µM | > 260 °C | 6 µM | 5 µM | 1 µM | 1 µM | 15 µM | 1 µM | 5 µM

Stronger by IC50 (CDK5/D25), values ahead:

Row | IC50 (CDK5/D25) | IC50 (GSK-3αβ) | IC50 (DYRK1A) | melting point | SMILES | IC50 (MDA-MB 231 (breast)) | IC50 (fibroblast) | IC50 (NCI (lung)) | IC50 (HCT 116 (colon)) | IC50 (Caco (colon)) | IC50 (Huh7 (liver)) | IC50 (PC3 (prostate))
9 | 2.7 µM | 0.033 µM | > 10 µM | 156 °C | Cc1cc(NC(=O)Nc2cccc3c2C2CCCCN2C3=O)no1 (stereo not drawn) [Compound 24, 1-(5-Méthylisoxazol-3-yl)-3-(6-oxo-1,2,3,4,6,10b-hexahydropyrido[2,1-a]isoindol-10-yl)urea] | 3 µM | 12 µM | 10 µM | 2 µM | 3 µM | 3 µM | 6 µM
10 | 0.084 µM | 0.032 µM | > 10 µM | 250 °C | O=C(Nc1cnccn1)Nc1cccc2c1C1C[C@@H](O)CCN1C2=O (stereo partly drawn) [Compound 105, 1-((2S)-2-Hydroxy-6-oxo-1,2,3,4,6,10b-hexahydropyrido[2,1-a]isoindol-10-yl)-3-(pyrazin-2-yl)urea] | 25 µM | 12 µM | 8 µM | 8 µM | > 25 µM | 4 µM | 20 µM
11 | 0.43 µM | 0.76 µM | > 10 µM | 178 to 180 °C | O=C(Nc1cscn1)Nc1cccc2c1C1CCCCN1C2=O (stereo not drawn) [Compound 26, 1-(6-Oxo-1,2,3,4,6,10b-hexahydropyrido[2,1-a]isoindol-10-yl)-3-(thiazol-4-yl)urea] | 0.4 µM | 4 µM | 5 µM | 0.8 µM | 0.8 µM | 1.2 µM | 2 µM
12 | 0.9 µM | 0.026 µM | 3.5 µM | 254 °C | O=C(Nc1cccc(F)n1)Nc1cccc2c1C1CCCCN1C2=O (stereo not drawn) [Compound 23, 1-(6-Fluoropyridin-2-yl)-3-(6-oxo-1,2,3,4,6,10b-hexahydropyrido[2,1-a]isoindol-10-yl)urea] | 0.03 µM | 0.3 µM | 0.3 µM | < 0.01 µM | 0.03 µM | 0.1 µM | 0.03 µM
13 | 1.7 µM | 0.13 µM | 2.4 µM | 152 °C | O=C(Nc1csc(-c2ccncc2)n1)Nc1cccc2c1C1CCCCN1C2=O (stereo not drawn) [Compound 37, 1-(6-Oxo-1,2,3,4,6,10b-hexahydropyrido[2,1-a]isoindol-10-yl)-3-(2-(pyridin-4-yl)thiazol-4-yl)urea] | 1.5 µM | 3 µM | 4 µM | 0.7 µM | 1.5 µM | 2 µM | 1 µM
14 | 0.13 µM | 0.076 µM | 21 µM | 225 °C | O=C(Nc1ccc(Br)cn1)Nc1cccc2c1C1CCCCN1C2=O (stereo not drawn) [Compound 18, 1-(5-Bromopyridin-2-yl)-3-(6-oxo-1,2,3,4,6,10b-hexahydropyrido[2,1-a]isoindol-10-yl)urea] | > 25 µM | > 25 µM | > 25 µM | > 25 µM | > 25 µM | > 25 µM | > 25 µM
15 | 0.53 µM | 0.12 µM | > 10 µM | 146 °C | Cc1nc(NC(=O)Nc2cccc3c2C2CCCCN2C3=O)cs1 (stereo not drawn) [Compound 35, 1-(2-Methylthiazol-4-yl)-3-(6-oxo-1,2,3,4,6,10b-hexahydropyrido[2,1-a]isoindol-10-yl)urea] | 1.5 µM | 0.4 µM | 3 µM | 0.6 µM | 0.7 µM | 0.9 µM | 1.5 µM
